The target in one assay is T1, Adrenergic β2 (Homo sapiens, UniProt P07550).
T1 construct: Adherent H292 cells were removed from tissue culture flasks; endogenous in cells; host or cells: H292 cells
The assay is described as follows: Adrenergic β2 mediated cAMP production in H292 cells (AlphaScreen cAMP detection). Type of assay: cell-based. To be noted: for β2 Int Act: Intrinsic Activity, fraction relative to the maximum activity determined for formoterol; for EC50: cAMP production, 60 min at room temperature, 300 μM rolipram, read-out: β2 pEC50 (converted). The method, then: H292 cells were grown in 225 cm2 flasks incubator at 37° C., 5% CO2 in RPMI medium containing, 10% (v/v) FBS (foetal bovine serum) and 2 mM L-glutamine.
Adherent H292 cells were removed from tissue culture flasks by treatment with Accutase™ cell detachment solution for 15 min. Flasks were incubated for 15 min in a humidified incubator at 37° C., 5% CO2. Detached cells were re-suspended in RPMI media (containing 10% (v/v) FBS and 2 mM L-glutamine) at […]. 10000 cells in 100 μl were added to each well of a tissue-culture-treated 96-well plate and the cells incubated overnight in a humidified incubator at 37° C., 5% CO2. The culture media was removed and cells were washed twice with 100 μl assay buffer and replaced with 50 μL assay buffer (HBSS solution containing 10 mM HEPES pH7.4 and 5 mM glucose). Cells were rested at room temperature for 20 min after which time 25 μl of rolipram (1.2 mM made up in assay buffer containing 2.4% (v/v) dimethylsulphoxide) was added. Cells were incubated with rolipram for 10 min after which time test compounds were added and the cells were incubated for 60 min at room temperature. The final rolipram concentration in the assay was 300 μM and final vehicle concentration was 1.6% (v/v) dimethylsulphoxide. The reaction was stopped by removing supernatants, washing once with 100 μL assay buffer and replacing with 50 μL lysis buffer. The cell monolayer was frozen at −80° C. for 30 min (or overnight).
AlphaScreen™ cAMP Detection
The concentration of cAMP (cyclic adenosine monophosphate) in the cell lysate was determined using AlphaScreen™ methodology. The frozen cell plate was thawed for 20 min on a plate shaker then 10 μl of the cell lysate was transferred to a 96-well white plate. 40 μL of mixed AlphaScreen™ detection beads pre-incubated with biotinylated cAMP, was added to each well and the plate incubated at room temperature for 10 h in the dark. The AlphaScreen™ signal was measured using an EnVision spectrophotometer (Perkin-Elmer Inc.) with the recommended manufacturer's settings. cAMP concentrations were determined by reference to a calibration curve determined in the same experiment using standard cAMP concentrations. Concentration response curves for agonists were constructed and data was fitted to a four parameter logistic equation to determine both the pEC50 and Intrinsic Activity. Intrinsic Activity was expressed as a fraction relative to the maximum activity determined for formoterol in each experiment.
(In general: Changes in cAMP serve as a functional read-out for many G protein-coupled receptors.)

In assay [1] the target is T2, recombinant human α1D receptor (Homo sapiens, UniProt P25100).
T2 construct: expressed in transfected cells; host or cells: HEK293
T2 sequence (P25100 1-572): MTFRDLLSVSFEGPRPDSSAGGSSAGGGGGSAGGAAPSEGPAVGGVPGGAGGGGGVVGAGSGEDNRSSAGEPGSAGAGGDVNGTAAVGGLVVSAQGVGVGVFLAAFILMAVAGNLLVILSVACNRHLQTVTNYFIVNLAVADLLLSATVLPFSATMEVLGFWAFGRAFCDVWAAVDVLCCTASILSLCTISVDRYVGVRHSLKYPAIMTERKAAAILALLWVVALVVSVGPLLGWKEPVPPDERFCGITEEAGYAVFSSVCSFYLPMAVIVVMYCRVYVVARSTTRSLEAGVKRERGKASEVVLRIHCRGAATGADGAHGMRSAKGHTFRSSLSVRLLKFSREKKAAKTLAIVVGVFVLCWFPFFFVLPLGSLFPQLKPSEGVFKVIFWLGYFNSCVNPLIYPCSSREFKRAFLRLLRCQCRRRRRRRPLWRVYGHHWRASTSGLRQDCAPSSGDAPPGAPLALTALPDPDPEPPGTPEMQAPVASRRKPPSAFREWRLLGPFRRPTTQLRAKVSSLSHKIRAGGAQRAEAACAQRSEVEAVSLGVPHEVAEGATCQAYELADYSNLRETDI
The assay is described as follows: Adrenergic α1D selectivity binding assay ([3H]-prazosin). To be noted: inhibition of [3H]-prazosin binding, HEK293 membranes, read-out: α1 bind pIC50 (converted). The method, then:
Membranes were prepared from human embryonic kidney 293 (HEK293) cells expressing recombinant human α1D receptor. These were diluted in Assay Buffer (50 mM HEPES, 1 mM EDTA, pH 7.4) to provide a final concentration of membranes that gave a clear window between maximum and minimum specific binding.
Assays were performed in U-bottomed 96-well polypropylene plates. 10 μl [^3H]-prazosin (0.3 nM final concentration) and 10 μl of test compound (10× final concentration) were added to each test well. For each assay plate 8 replicates were obtained for [^3H]-prazosin binding in the presence of 10 μl vehicle (10% (v/v) DMSO in Assay Buffer; defining maximum binding) or 10 μL BMY7378 (10 μM final concentration; defining non-specific binding (NSB)). Membranes were then added to achieve a final volume of 100 μL. The plates were incubated for 2 h at room temperature and then filtered onto PEI coated GF/B filter plates, pre-soaked for 1 h in Assay Buffer, using a 96-well plate Tomtec cell harvester. Five washes with 250 μl wash buffer (50 mM HEPES, 1 mM EDTA, pH 7.4) were performed at 4° C. to remove unbound radioactivity. The plates were dried then sealed from underneath using Packard plate sealers and MicroScint-O (50 μl) was added to each well. The plates were sealed (TopSeal A) and filter-bound radioactivity was measured with a scintillation counter (TopCount, Packard BioScience) using a 3-minute counting protocol.
Total specific binding (B0) was determined by subtracting the mean NSB from the mean maximum binding. NSB values were also subtracted from values from all other wells. […] Data was fitted to a four parameter logistic equation to determine the compound potency, which was expressed as pIC50 (negative log molar concentration inducing 50% inhibition of [^3H]-prazosin binding).

Counter-ions that a name gives are not always drawn.

T1 sequence (P07550 whole entry): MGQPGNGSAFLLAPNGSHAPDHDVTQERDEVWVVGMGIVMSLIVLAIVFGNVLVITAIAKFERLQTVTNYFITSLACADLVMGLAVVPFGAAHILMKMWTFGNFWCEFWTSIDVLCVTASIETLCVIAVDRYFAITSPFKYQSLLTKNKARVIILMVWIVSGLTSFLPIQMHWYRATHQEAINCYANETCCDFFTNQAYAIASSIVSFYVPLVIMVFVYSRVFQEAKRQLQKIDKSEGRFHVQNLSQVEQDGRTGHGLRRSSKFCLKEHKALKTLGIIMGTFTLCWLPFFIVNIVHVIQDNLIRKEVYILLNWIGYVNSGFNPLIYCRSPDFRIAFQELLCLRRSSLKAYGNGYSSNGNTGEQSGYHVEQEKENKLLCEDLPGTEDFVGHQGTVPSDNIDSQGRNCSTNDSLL

`Cn1nccc1-c1cccc(CCOCCC(=O)N(CCNCCc2ccc(O)c3c2OCC(=O)N3)C2CCCCC2)c1` [Example 03, N-Cyclohexyl-N-(2-(2-(5-hydroxy-3-oxo-3,4-dihydro-2H-benzo[b][1,4]oxazin-8-yl)ethylamino)ethyl)-3-(3-(1-methyl-1H-pyrazol-5-yl)phenethoxy)propanamide Trifluoroacetic Acid Salt]: at Adrenergic β2, the “β2 Int Act” value is 0.81 and the EC50 is 10 nM. In addition, the IC50 in assay [1] was 2000 nM.
`Cn1nnnc1-c1cccc(CCOCCC(=O)N(CCNCCc2ccc(O)c3c2OCC(=O)N3)C2CCCCC2)c1` [Example 08, N-Cyclohexyl-N-(2-(2-(5-hydroxy-3-oxo-3,4-dihydro-2H-benzo[b][1,4]oxazin-8-yl)ethylamino)ethyl)-3-(3-(1-methyl-1H-tetrazol-5-yl)phenethoxy)propanamide Trifluoroacetic Acid Salt]: at Adrenergic β2, the “β2 Int Act” value is reported as 0.92 and the EC50 was 15.8 nM. For the same compound, the IC50 in assay [1] was 3980 nM.
As for `CCn1cc(-c2cccc(CCOCCC(=O)N(CCNCCc3ccc(O)c4c3OCC(=O)N4)C3CCCCC3)c2)cn1` [Example 28, N-Cyclohexyl-3-(3-(1-ethyl-1H-pyrazol-4-yl)phenethoxy)-N-(2-(2-(5-hydroxy-3-oxo-3,4-dihydro-2H-benzo[b][1,4]oxazin-8-yl)ethylamino)ethyl)propanamide], at Adrenergic β2, the “β2 Int Act” value came to 0.90 and the EC50 was 6.31 nM. Moreover, the IC50 in assay [1] was 794 nM.
For `Cc1c(-c2cccc(CCOCCC(=O)N(CCNCCc3ccc(O)c4c3OCC(=O)N4)C3CCCCC3)c2)cnn1C` [Example 37, N-Cyclohexyl-3-(3-(1,5-dimethyl-1H-pyrazol-4-yl)phenethoxy)-N-(2-(2-(5-hydroxy-3-oxo-3,4-dihydro-2H-benzo[b][1,4]oxazin-8-yl)ethylamino)ethyl)propanamide Trifluoroacetic Acid Salt] the same measures were 0.85, 6.31 nM and 1000 nM.
For `CC(C)n1cc(-c2cccc(CCOCCC(=O)N(CCNCCc3ccc(O)c4c3OCC(=O)N4)C3CCCC3)c2)cn1` [Example 22, N-Cyclopentyl-N-(2-(2-(5-hydroxy-3-oxo-3,4-dihydro-2H-benzo[b][1,4]oxazin-8-yl)ethylamino)ethyl)-3-(3-(1-isopropyl-1H-pyrazol-4-yl)phenethoxy)propanamide Trifluoroacetic Acid Salt] the same measures were 0.90, 7.94 nM and 794 nM.
For `Cn1cc(-c2cc(F)cc(CCOCCC(=O)N(CCNCCc3ccc(O)c4c3OCC(=O)N4)C3CCCCC3)c2)cn1` [Example 17, N-Cyclohexyl-3-(3-fluoro-5-(1-methyl-1H-pyrazol-4-yl)phenethoxy)-N-(2-(2-(5-hydroxy-3-oxo-3,4-dihydro-2H-benzo[b][1,4]oxazin-8-yl)ethylamino)ethyl)propanamide Trifluoroacetic Acid Salt], in that order: 0.94, 7.94 nM and 501 nM.
`C[C@@H](N(CCNCCc1ccc(O)c2c1OCC(=O)N2)C(=O)CCOCCc1cccc(-c2cnn(C)c2)c1)C(C)(C)C` [Example 26, (R)—N-(3,3-Dimethylbutan-2-yl)-N-(2-(2-(5-hydroxy-3-oxo-3,4-dihydro-2H-benzo[b][1,4]oxazin-8-yl)ethylamino)ethyl)-3-(3-(1-methyl-1H-pyrazol-4-yl)phenethoxy)propanamide Trifluoroacetic Acid Salt]: on Adrenergic β2, the “β2 Int Act” value is listed as 0.88 and the EC50 is 12.6 nM. In addition, the IC50 in assay [1] was 501 nM.
For `CC(C)[C@@H](C)N(CCNCCc1ccc(O)c2c1OCC(=O)N2)C(=O)CCOCCc1cccc(-c2cnn(C)c2)c1` [Example 09, (R)—N-(2-(2-(5-Hydroxy-3-oxo-3,4-dihydro-2H-benzo[b][1,4]oxazin-8-yl)ethylamino)ethyl)-3-(3-(1-methyl-1H-pyrazol-4-yl)phenethoxy)-N-(3-methylbutan-2-yl)propanamide Trifluoroacetic Acid Salt] the same measures were 0.92, 7.94 nM and 1000 nM.
As to `CCCC[C@@H](C)N(CCNCCc1ccc(O)c2c1OCC(=O)N2)C(=O)CCOCCc1cccc(-c2cnn(C)c2)c1` [Example 30, (R)—N-(Hexan-2-yl)-N-(2-(2-(5-hydroxy-3-oxo-3,4-dihydro-2H-benzo[b][1,4]oxazin-8-yl)ethylamino)ethyl)-3-(3-(1-methyl-1H-pyrazol-4-yl)phenethoxy)propanamide Trifluoroacetic Acid Salt], at Adrenergic β2, the “β2 Int Act” value came out at 0.93 and the EC50 was 12.6 nM. In addition, the IC50 in assay [1] is 1000 nM.
For `COCCn1cc(-c2cccc(CCOCCC(=O)N(CCNCCc3ccc(O)c4c3OCC(=O)N4)C3CCCCC3)c2)cn1` [Example 36, N-Cyclohexyl-N-(2-(2-(5-hydroxy-3-oxo-3,4-dihydro-2H-benzo[b][1,4]oxazin-8-yl)ethylamino)ethyl)-3-(3-(1-(2-methoxyethyl)-1H-pyrazol-4-yl)phenethoxy)propanamide Trifluoroacetic Acid Salt] the same measures were 1.05, 20 nM and 2510 nM.
With `O=C1COc2c(CCNCCN(C(=O)CCOCCc3cccc(-c4c[nH]nn4)c3)C3CCCCC3)ccc(O)c2N1` [Example 14, 3-(3-(1H-1,2,3-Triazol-4-yl)phenethoxy)-N-cyclohexyl-N-(2-(2-(5-hydroxy-3-oxo-3,4-dihydro-2H-benzo[b][1,4]oxazin-8-yl)ethylamino)ethyl)propanamide Trifluoroacetic Acid Salt], on Adrenergic β2, the “β2 Int Act” value worked out at 0.95 and the EC50 is 7.94 nM. Besides, the IC50 in assay [1] is 1000 nM.
For `Cn1ccnc1-c1cccc(CCOCCC(=O)N(CCNCCc2ccc(O)c3c2OCC(=O)N3)C2CCCCC2)c1` [Example 33, N-Cyclohexyl-N-(2-(2-(5-hydroxy-3-oxo-3,4-dihydro-2H-benzo[b][1,4]oxazin-8-yl)ethylamino)ethyl)-3-(3-(1-methyl-1H-imidazol-2-yl)phenethoxy)propanamide] the same measures were 0.93, 12.6 nM and 2000 nM.

The record behind these values is patent publication US8017602B2, “N-(2-(2-(5-hydroxy-3-oxo-3,4-dihydro-2H-benzo[b][1,4]oxazin-8-yl)ethylamino)ethyl)-3-(phenethoxy)propanamide derivatives, processes for their preparation, pharmaceutical compositions containing them and their use in therapy” (AstraZeneca AB, priority 2008, dated 2011).
